Measured values: patent US7517851B2, “Chlamydia oligosaccharides” (priority 1996, dated 2009)
Like-named read-outs stand apart in the source and are kept apart here.

System: Chlamydia trachomatis L2/434/Bu
Assay type: cell-based
Details: HeLa cells, maximum concentration (20 μg) tested

## oligomannose 9
First of two separate sets of experiments
  % INHIBITION (infectivity inhibition): 64%
Second of two separate sets of experiments
  % INHIBITION (infectivity inhibition): 62%
